Data: paper PMC8155022 (Scientific Reports, 2021)

Key:
[1] = target: T1, mu (h) (MOP) (agonist site) (Homo sapiens, UniProt P35372); experiment: Cerep panel; type: binding
T1 construct: purchased Cerep (receptors, ion channels, transporters); Eurofins Panlabs (kinases)
Procedure: (§2) A panel of 52 different receptors, ion channels and transporters was tested by Cerep, Inc. (Redmond, WA).

[2] = target: T2, PAK4(h) (Homo sapiens, UniProt O96013); experiment: Kinase panel; type: biochemical
T2 construct: purchased Cerep (receptors, ion channels, transporters); Eurofins Panlabs (kinases)
Procedure: (§3) Kinase selectivity was conducted by Eurofins Panlabs Inc (St Charles, MO).

[3] = target: ADRA1A (Homo sapiens, UniProt P35348); experiment: GPCR panel, cAMP or calcium FLIPR assays; type: cell-based
Procedure: (§4) 28 GPCRs were evaluated through cAMP or calcium FLIPR assays[67].

[4] = target: T3, PKCβI(h) (Homo sapiens, UniProt P05771); experiment: Kinase panel; type: biochemical
T3 construct: purchased Cerep (receptors, ion channels, transporters); Eurofins Panlabs (kinases)
Procedure: as §3

[5] = target: T4, EphA2(h) (Homo sapiens, UniProt P29317); experiment: Kinase panel; type: biochemical
T4 construct: purchased Cerep (receptors, ion channels, transporters); Eurofins Panlabs (kinases)
Procedure: as §3

[6] = target: T5, Aurora-A(h) (Homo sapiens, UniProt O14965); experiment: Kinase panel; type: biochemical
T5 construct: purchased Cerep (receptors, ion channels, transporters); Eurofins Panlabs (kinases)
T5 sequence (O14965 whole entry): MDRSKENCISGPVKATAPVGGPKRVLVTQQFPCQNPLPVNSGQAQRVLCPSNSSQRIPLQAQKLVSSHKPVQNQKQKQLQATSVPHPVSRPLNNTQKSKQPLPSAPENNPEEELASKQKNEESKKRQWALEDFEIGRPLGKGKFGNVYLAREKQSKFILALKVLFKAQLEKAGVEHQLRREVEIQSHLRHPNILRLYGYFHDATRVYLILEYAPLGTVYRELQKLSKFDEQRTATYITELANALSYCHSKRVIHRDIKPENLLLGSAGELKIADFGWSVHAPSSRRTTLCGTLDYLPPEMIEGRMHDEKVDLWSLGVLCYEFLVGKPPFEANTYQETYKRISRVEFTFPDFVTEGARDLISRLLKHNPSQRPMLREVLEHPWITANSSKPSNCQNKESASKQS
Procedure: as §3

[7] = target: T6, PKCα(h) (Homo sapiens, UniProt P17252); experiment: Kinase panel; type: biochemical
T6 construct: purchased Cerep (receptors, ion channels, transporters); Eurofins Panlabs (kinases)
Procedure: as §3

[8] = target: MOP (Homo sapiens, UniProt P35372); experiment: GPCR panel, cAMP or calcium FLIPR assays; type: cell-based
Procedure: (§5) 28 GPCRs were evaluated through cAMP or calcium FLIPR assays[67]. A panel of 52 different receptors, ion channels and transporters was tested by Cerep, Inc. (Redmond, WA). Kinase selectivity was conducted by Eurofins Panlabs Inc (St Charles, MO).

[9] = target: T7, PXR (Homo sapiens, UniProt O75469); experiment: nuclear receptor cellular GAL4 reporter assay; type: cell-based
T7 construct: expressed in transfected cells
T7 sequence (O75469 whole entry, the tested form may be a part): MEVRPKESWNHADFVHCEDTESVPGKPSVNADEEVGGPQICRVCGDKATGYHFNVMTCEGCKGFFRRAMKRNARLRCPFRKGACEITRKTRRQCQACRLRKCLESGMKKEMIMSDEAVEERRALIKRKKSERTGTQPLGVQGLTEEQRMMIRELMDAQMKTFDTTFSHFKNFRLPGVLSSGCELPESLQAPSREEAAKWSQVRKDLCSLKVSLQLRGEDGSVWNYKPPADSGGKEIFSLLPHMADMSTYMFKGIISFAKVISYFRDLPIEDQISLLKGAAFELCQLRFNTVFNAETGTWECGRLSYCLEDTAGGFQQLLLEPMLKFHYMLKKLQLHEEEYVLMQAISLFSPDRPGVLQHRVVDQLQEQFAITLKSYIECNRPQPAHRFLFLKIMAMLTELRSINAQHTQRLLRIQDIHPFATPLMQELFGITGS

[10] = 1-month GLP toxicity study in dogs; type: in vivo; details: Beagle, in vivo, dog; for AUC(0-t) / Cmax: po, 3 mg/kg; for AUC(0-t): read-out: AUC0-24 h at NOAEL; for Cmax: read-out: Cmax at NOAEL
Procedure: (§1) The type of study plan was reviewed and agreed by the Laboratory Animal Welfare Officer and the Animal Ethical Committee (officially known as Dierexperimentencommissie (DEC) Charles River Den Bosch), as required by the Dutch Act on Animal Experimentation (February 1997). Both rat and dog studies were performed in AALAC accredited Charles River Laboratories in the Netherlands. Studies in rats were conducted with 0, 25, 100, and 400 mg/kg per day (n = 10/sex/group) for 1 month. An additional 5 animals/sex in vehicle and high dose were allowed to continue for a 1-month treatment-free recovery period. Studies in dogs were conducted with 0, 3, 10, and 30 mg/kg per day (n = 4/sex/group) for 1 month. A treatment-free recovery period of 1 month (additional 2 dogs/sex/group) was included for both vehicle controls and high dose groups. […] Rats and dogs were examined for mortality, clinical signs, ophthalmoscopic changes, body weight, food consumption, hematology, clinical chemistry, anatomic pathology, and toxicokinetics. In addition, dogs were examined for electrocardiographic changes. Rats and dogs were also assessed for reversal of any effects following a 1-month recovery period. These studies were conducted in compliance with good laboratory practice (GLP) regulations.

[11] = system: Beagle dogs; experiment: 1-month GLP toxicity study in dogs; type: in vivo; details: dog
Procedure: as §1

[12] = target: T8, ROCK-I(h) (Homo sapiens, UniProt Q13464); experiment: Kinase panel; type: biochemical
T8 construct: purchased Cerep (receptors, ion channels, transporters); Eurofins Panlabs (kinases)
Procedure: as §3

[13] = target: T9, VDR (Homo sapiens, UniProt P11473); experiment: nuclear receptor cellular GAL4 reporter assay; type: cell-based; details: agonist and antagonist mode; read-out: potency in agonist and antagonist mode
T9 construct: expressed in transfected cells

[14] = 1-month GLP toxicity study in rats; type: in vivo; details: Sprague-Dawley, in vivo, rat; for AUC(0-t) / Cmax: po, 400 mg/kg/day; for AUC(0-t): read-out: AUC0-24 h at NOAEL; for Cmax: read-out: Cmax at NOAEL
Procedure: as §1

[15] = system: Sprague–Dawley rats; experiment: 1-month GLP toxicity study in rats; type: in vivo; details: rat; recovered after 1-month recovery period
Procedure: as §1

[16] = target: T10, ALK4(h) (Homo sapiens, UniProt P36896); experiment: Kinase panel; type: biochemical
T10 construct: purchased Cerep (receptors, ion channels, transporters); Eurofins Panlabs (kinases)
Procedure: as §5

[17] = target: A2A (Homo sapiens, UniProt P29274); experiment: GPCR panel, cAMP or calcium FLIPR assays; type: cell-based
Chain of A2A (P29274 whole entry): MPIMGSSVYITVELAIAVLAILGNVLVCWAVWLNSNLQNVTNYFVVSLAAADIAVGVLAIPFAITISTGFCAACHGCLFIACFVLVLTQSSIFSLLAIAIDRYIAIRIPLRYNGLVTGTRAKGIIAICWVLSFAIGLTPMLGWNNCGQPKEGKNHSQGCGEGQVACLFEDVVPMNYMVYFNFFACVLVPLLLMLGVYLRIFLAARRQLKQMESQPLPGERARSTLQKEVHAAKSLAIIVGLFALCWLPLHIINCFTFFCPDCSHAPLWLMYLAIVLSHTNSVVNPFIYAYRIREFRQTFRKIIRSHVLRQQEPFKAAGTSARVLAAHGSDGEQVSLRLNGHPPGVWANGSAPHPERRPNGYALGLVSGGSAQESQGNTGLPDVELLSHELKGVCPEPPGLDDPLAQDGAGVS
Procedure: as §4

[18] = target: T11, NE-T transporter (h) (Homo sapiens, UniProt P23975); experiment: Cerep panel; type: binding
T11 construct: purchased Cerep (receptors, ion channels, transporters); Eurofins Panlabs (kinases)
T11 sequence (P23975 whole entry): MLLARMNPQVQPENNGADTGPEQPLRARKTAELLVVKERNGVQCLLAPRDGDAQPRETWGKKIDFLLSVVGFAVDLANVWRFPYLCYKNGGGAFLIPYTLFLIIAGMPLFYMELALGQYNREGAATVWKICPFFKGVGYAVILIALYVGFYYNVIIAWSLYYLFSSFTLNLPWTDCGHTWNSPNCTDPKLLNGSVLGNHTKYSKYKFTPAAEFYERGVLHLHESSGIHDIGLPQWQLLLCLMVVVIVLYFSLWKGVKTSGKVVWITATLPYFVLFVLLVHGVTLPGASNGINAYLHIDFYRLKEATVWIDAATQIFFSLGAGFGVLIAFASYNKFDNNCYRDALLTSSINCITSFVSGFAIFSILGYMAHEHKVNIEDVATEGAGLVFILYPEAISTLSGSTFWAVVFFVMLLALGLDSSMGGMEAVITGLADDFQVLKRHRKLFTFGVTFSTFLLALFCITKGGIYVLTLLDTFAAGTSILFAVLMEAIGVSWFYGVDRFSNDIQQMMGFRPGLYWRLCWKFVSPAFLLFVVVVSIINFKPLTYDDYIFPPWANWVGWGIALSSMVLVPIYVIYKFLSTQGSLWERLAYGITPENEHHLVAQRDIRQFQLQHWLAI
Procedure: as §2

[19] = target: CCKA (Homo sapiens, UniProt P32238); experiment: GPCR panel, cAMP or calcium FLIPR assays; type: cell-based
Chain of CCKA (P32238 whole entry): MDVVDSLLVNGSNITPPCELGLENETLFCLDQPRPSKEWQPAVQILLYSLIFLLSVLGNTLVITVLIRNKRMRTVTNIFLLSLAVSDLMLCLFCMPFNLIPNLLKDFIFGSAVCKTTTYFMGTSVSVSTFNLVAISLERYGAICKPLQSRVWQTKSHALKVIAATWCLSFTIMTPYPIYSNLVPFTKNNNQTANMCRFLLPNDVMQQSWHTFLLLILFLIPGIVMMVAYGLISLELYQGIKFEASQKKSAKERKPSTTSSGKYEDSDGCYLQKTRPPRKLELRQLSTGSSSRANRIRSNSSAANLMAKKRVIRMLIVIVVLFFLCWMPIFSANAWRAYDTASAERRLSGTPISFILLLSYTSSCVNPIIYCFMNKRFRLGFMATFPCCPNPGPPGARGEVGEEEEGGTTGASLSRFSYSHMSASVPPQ
Procedure: as §4

[20] = target: 5HT2B (Homo sapiens, UniProt P41595); experiment: Cerep panel; type: binding; parameters: purchased Cerep (receptors, ion channels, transporters); Eurofins Panlabs (kinases)
Chain of 5HT2B (P41595 whole entry): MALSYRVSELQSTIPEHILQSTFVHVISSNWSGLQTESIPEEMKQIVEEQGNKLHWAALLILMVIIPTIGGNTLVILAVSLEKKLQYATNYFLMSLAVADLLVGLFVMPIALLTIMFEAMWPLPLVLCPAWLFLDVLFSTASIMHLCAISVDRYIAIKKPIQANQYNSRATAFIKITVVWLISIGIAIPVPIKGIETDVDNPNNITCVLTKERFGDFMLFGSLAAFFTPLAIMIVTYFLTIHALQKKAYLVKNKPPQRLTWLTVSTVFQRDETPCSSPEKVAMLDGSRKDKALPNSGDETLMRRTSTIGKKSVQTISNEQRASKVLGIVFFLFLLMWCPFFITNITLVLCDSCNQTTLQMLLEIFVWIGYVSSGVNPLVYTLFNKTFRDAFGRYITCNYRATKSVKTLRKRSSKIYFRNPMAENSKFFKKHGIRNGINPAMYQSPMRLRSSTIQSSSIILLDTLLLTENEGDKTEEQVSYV
Procedure: as §2

[21] = target: T12, MAPK2(h) (Homo sapiens, UniProt P28482); experiment: Kinase panel; type: biochemical
T12 construct: purchased Cerep (receptors, ion channels, transporters); Eurofins Panlabs (kinases)
T12 sequence (P28482 whole entry): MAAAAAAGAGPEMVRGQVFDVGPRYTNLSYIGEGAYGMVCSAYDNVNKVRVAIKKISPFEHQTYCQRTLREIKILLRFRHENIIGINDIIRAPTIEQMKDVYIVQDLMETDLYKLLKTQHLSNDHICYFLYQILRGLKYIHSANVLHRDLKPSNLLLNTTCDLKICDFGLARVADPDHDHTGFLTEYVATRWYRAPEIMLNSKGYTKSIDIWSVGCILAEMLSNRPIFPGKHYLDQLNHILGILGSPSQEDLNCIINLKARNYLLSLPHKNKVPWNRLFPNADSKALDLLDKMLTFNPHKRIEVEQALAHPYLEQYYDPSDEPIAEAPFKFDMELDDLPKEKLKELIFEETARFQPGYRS
Procedure: as §3

[22] = target: KOP (Homo sapiens, UniProt P41145); experiment: GPCR panel, cAMP or calcium FLIPR assays; type: cell-based
Procedure: as §4

[23] = target: T13, 5-HT6 (h) (Homo sapiens, UniProt P50406); experiment: Cerep panel; type: binding
T13 construct: purchased Cerep (receptors, ion channels, transporters); Eurofins Panlabs (kinases)
T13 sequence (P50406 whole entry): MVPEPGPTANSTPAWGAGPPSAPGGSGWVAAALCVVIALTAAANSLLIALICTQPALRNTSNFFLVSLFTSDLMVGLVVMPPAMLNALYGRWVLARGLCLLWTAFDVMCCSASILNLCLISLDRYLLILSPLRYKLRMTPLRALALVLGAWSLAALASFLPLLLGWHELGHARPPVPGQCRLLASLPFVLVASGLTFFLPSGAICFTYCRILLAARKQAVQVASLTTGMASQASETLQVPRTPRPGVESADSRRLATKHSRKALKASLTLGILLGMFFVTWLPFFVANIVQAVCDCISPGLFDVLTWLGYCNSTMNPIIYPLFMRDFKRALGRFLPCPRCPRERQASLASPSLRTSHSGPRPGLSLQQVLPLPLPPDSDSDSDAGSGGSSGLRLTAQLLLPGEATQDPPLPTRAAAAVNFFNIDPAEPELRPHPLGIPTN
Procedure: as §2

[24] = system: rabbit fetal development; experiment: rabbit embryo-fetal study; type: in vivo
Procedure: Therefore, SAD was dosed only up to 200 mg.

T2 sequence (O96013 whole entry): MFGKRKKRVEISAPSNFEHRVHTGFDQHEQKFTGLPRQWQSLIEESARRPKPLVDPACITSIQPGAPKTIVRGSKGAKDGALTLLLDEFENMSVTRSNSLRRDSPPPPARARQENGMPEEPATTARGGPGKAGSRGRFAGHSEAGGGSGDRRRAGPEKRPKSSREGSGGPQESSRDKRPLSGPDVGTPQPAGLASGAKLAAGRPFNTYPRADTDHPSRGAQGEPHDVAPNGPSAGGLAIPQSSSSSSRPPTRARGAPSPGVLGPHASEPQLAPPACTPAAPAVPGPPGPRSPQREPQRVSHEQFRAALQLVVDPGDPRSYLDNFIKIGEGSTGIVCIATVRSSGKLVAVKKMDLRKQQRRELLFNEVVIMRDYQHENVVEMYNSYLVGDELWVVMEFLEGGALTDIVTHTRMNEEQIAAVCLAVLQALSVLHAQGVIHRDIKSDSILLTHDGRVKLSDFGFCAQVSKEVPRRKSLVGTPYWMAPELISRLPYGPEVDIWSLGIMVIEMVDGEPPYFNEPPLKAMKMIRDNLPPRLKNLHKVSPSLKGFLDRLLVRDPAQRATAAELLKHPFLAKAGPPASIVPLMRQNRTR

**Q.** Which results are given for `CC1CCCN1C(=O)c1nc(C(=O)NCC(C)(C)O)sc1-c1ccc(C(O)(C(F)(F)F)C(F)(F)F)c(Cl)c1Cl` (stereo not shown) [JNJ-61803534]?
**A.** inhibition at 1 µM [1]: < 10%; inhibition at 10 µM [1]: 12.2%; activity at 1 µM [2]: 104%; activity at 10 µM [2]: 103%; EC50 ([3]; agonist): > 10 µM; IC50 ([3]; antagonist): > 10 µM; activity at 1 µM [4]: 97%; activity at 10 µM [4]: 87%; activity at 1 µM [5]: 99%; activity at 10 µM [5]: 102%; activity at 1 µM [6]: 97%; activity at 10 µM [6]: 102%; activity at 1 µM [7]: 102%; activity at 10 µM [7]: 99%; EC50 ([8]; agonist): > 12.5 µM; IC50 ([8]; antagonist): > 12.5 µM; mode of action on PXR [9]: possibly partial modulator; IC50 ([9]; agonist and antagonist mode): 0.34 µM; AUC(0-t) ([10]; female): 142 µg·h/mL; Cmax ([10]; female): 7500 ng/mL; AUC(0-t) ([10]; male): 118 µg·h/mL; Cmax ([10]; male): 7250 ng/mL; NOAEL at 1 month ([10]; both sexes, 1 month oral): 3 mg/kg; tolerability ([11]; 10 mg/kg/day, weight loss and reduced food consumption in the fourth week, trend for increased ALP): clinically well tolerated during the first 3 weeks of treatment; tolerability ([11]; 30 mg/kg/day, intestinal mucosal hemorrhages and slight hepatocellular lipid vacuolation in some animals): exceeded the maximum tolerated dose; lymphocyte apoptosis in thymus ([11]; recovered after 1-month recovery period): dose-dependent lymphocyte apoptosis in thymus was observed; activity at 1 µM [12]: 108%; activity at 10 µM [12]: 110%; IC50 [13]: > 1.5 µM; AUC(0-t) ([14]; female): 376 µg·h/mL; Cmax ([14]; female): 24200 ng/mL; AUC(0-t) ([14]; male): 310 µg·h/mL; Cmax ([14]; male): 29600 ng/mL; NOAEL at 1 month ([14]; both sexes, 1 month oral, highest dose tested, read-out: no-observed-adverse-effect level (NOAEL)): 400 mg/kg/day; lymphocyte apoptosis in thymus [15]: dose-dependent lymphocyte apoptosis in thymus was observed; activity at 1 µM [16]: 104%; activity at 10 µM [16]: 108%; EC50 ([17]; agonist): > 12.5 µM; IC50 ([17]; antagonist): > 12.5 µM; inhibition at 1 µM [18]: < 10%; inhibition at 10 µM [18]: < 10%; EC50 ([19]; agonist): > 10 µM; IC50 ([19]; antagonist): > 10 µM; inhibition at 1 µM [20]: < 10%; inhibition at 10 µM [20]: 36.8%; activity at 1 µM [21]: 124%; activity at 10 µM [21]: 127%; EC50 ([22]; agonist): > 12.5 µM; IC50 ([22]; antagonist): > 12.5 µM; inhibition at 1 µM [23]: < 10%; inhibition at 10 µM [23]: < 10%; effect on fetal development [24]: fetal development was impacted
